How the values were obtained:
[1] = In vitro water binding capacity, stratum corneum pieces, 6 hrs at 85% relative humidity; settings: for Water binding capacity after 6 hrs: aqueous 10% by weight solution; for Uptake of water after 6 hrs / Uptake of water after 6 hrs %: pre-incubated with 10% (by weight) solution, relative humidity 85%, room temperature
[2] = In vitro water binding capacity, stratum corneum pieces, 24 hours at 85% relative humidity; set-up: species or system human; settings: after 24 hours, mean, pentane-1,5-diol 20%, urea 10%, control water content subtracted
Description: Pieces of stratum corneum from the sole of 7 healthy volunteers were used. […] The specimens were removed after 24 hours for weighing. […] The water binding capacity was estimated by subtracting the WC for stratum corneum incubated with distilled water for 24 hours from the WC for the stratum corneum pieces incubated with the test substances for 24 hours. […] While the latter composition does give rise to itching when applied to eczematous skin, this negative effect is not encountered with the composition according to the invention.

[3] = tested on: shaved skin of albino rabbits; experiment: Skin irritation test; assay type: in vivo, rabbit; settings: scale 1 (no irritation) to 10 (maximum irritation); 24 hours exposure
Source text: (§1) Only very mild irritation (score 2 on a 1-10 scale) was observed.

[4] = tested on: eye (conjunctiva) of albino rabbits; experiment: Eye irritation test; assay type: in vivo, rabbit; settings: 1-10 scale
Source text: as §1

[5] = aqueous solution containing 20% of pentane-1,5-diol

| Water binding capacity after 6 hrs [1] | Uptake of water after 6 hrs [1] | Uptake of water after 6 hrs % [1] | Water binding capacity [2] | Water binding capacity ([2]; listed as Urea) | Water binding capacity ([2]; listed as Pentane-1,5-diol) | Water binding capacity [1, 5] | Water content [1, 5] | Structure (SMILES) | Skin irritation score [3] | Eye irritation score [4] |
| --- | --- | --- | --- | --- | --- | --- | --- | --- | --- | --- |
| 17 % by weight | 0.0109 mg | 28% | 16% | 16% |  |  |  | NC(N)=O [urea] |  |  |
| 9 % by weight | 0.0075 mg | 20% | 23% |  | 23% | 13 % by weight | 24% | OCCCCCO [pentane-1,5-diol] | 1 | 2 |

| Structure (SMILES) | Water binding capacity after 6 hrs [1] | Uptake of water after 6 hrs [1] | Uptake of water after 6 hrs % [1] | Water binding capacity [2] | Water binding capacity ([2]; listed as Urea) | Water binding capacity ([2]; listed as Pentane-1,5-diol) | Water binding capacity [1, 5] | Water content [1, 5] | Skin irritation score [3] | Eye irritation score [4] |
| --- | --- | --- | --- | --- | --- | --- | --- | --- | --- | --- |
| CC(O)CO (centres unmarked) [propane-1,2-diol] | 7 % by weight | 0.0032 mg | 18% |  |  |  |  |  |  |  |
